# Experimental data: patent US5098995A, “GRF Analogs VIIA” (The Salk Institute For Biological Studies, priority 1989, dated 1992)
# Ends that are not written are not given here.
# Tested on: cells of rat pituitary glands
# Assay: in vitro assay of growth hormone release from cultured rat pituitary cells, side-by-side with the hpGRF(1-40)-OH standard
# Format: cell-based
# Settings: potency for GH release relative to hGRF(1-40)-OH standard = 1.0; equimolar concentrations; rat pituitary cell cultures; incubation 3 to 4 hours; ir GH by radioimmunoassay; limits in brackets
# Description: To determine the relative effectiveness of certain representative synthetic peptides to promote the release of growth hormone, in vitro assays are carried out using synthetic hpGRF(1-40)-OH as a standard in side-by-side comparison with equimolar concentrations of the representative analogs which have been synthesized. Cultures are used which include cells of rat pituitary glands removed some three to five days previously. Such cultures are considered optimal for the secretion of growth hormone and are used for the comparative testing, in the general manner described in Vale et al. Endocrinology, 91, 562-572 (1972) and as more particularly described in Vale et al. Endocrinology, 112, 1553-1555 (1983). Incubation with the substance to be tested is carried out for 3 to 4 hours, and aliquots of the culture medium are removed and processed to measure their contents in immunoreactive GH(ir GH) by a well-characterized radioimmunoassay.
row,Substance,In Vitro Potencies
1,"[N^a MeTyr^1, Ala^15, CMA^19, Nle^27, Asn^28 ]-hGRF(1-29)-NH2",7.07 (3.8-13.6)
2,"[N^a MeTyr^1, Ala^15, CML^17, Nle^27, Asn^28 ]-hGRF(1-29)-NH2",5.41 (3.5-8.3)
3,"[N^a MeTyr^1, Ala^15, CML^22, Nle^27, Asn^28 ]-hGRF(1-29)-NH2",7.18 (4.1-12.7)
4,"[N^a MeTyr^1, Ala^15, CML^23, Nle^27, Asn^28 ]-hGRF(1-29)-NH2",1.96 (1.1-3.3)
5,"[N^a MeTyr^1, Ala^15, CML^26, Nle^27, Asn^28 ]-hGRF(1-29)-NH2",6.44 (4.0-10.3)
6,"[N^a MeTyr^1, CMA^13, Ala^15, Nle^27, Asn^28 ]-hGRF(I-29)-NH2",2.24 (1.4-3.4)
7,"[N^a MeTyr^1, CML^5, Ala^15, Nle^27, Asn^28 ]-hGRF(1-29)-NH2",3.59 (2.3-5.5)
8,"hGRF(1-40)--OH: synthetic human pancreatic/hypothalamic GH releasing factor (1-40) free acid, used as the standard in the in vitro and in vivo tests (YADAIFTNSYRKVLGQLSARKLLQDIMSRQQGESNQERGA-OH; UniProt P01286 32-71, looked up, fragment) [reference compound]",1.0
